According to ChEMBL document CHEMBL3797119, “Pharmacokinetic Study of Two Macrolide Antibiotic Oral Suspensions Using an Optimized Bioassay Procedure” (J Bioequivalence Bioavailab, 2010):
One block for each compound: values may come before it.

Legend:
Type in all cases: ADME, organism-based
Details in all cases: in vivo
Homo sapiens [1] = experiment: First order inter-compartment transfer rate constant from central to peripheral compartment in healthy human (24 volunteers) at 500 mg, po reference formulation of drug administered as single dose by two-compartmental open model
[2] = Half life in healthy human (24 volunteers) at 500 mg, po test formulation of drug administered as single dose
Homo sapiens [3] = experiment: First order inter-compartment transfer rate constant from peripheral to central compartment in healthy human (24 volunteers) at 500 mg, po test formulation of drug administered as single dose by two-compartmental open model
[4] = AUC (0 to t) in healthy human (24 volunteers) at 500 mg, po test formulation of drug administered as single dose measured after 0.5 to 72 hrs; parameters: time upper 72 hr, time lower 0.5 hr, dose 500 mg, route oral
Homo sapiens [5] = experiment: Volume of distribution in healthy human (24 volunteers) at 500 mg, po test formulation of drug administered as single dose by two-compartmental open model
Homo sapiens [6] = experiment: Ratio of Cmax in healthy human (24 volunteers) at 500 mg, po test formulation of drug administered as single dose to Cmax in healthy human (24 volunteers) at 500 mg, po reference formulation of drug administered as single dose
[7] = AUC (0 to infinity) in healthy human (24 volunteers) at 500 mg, po test formulation of drug administered as single dose measured after 0.5 to 72 hrs; parameters: dose 500 mg, route oral, time infinity
[8] = Half life in healthy human (24 volunteers) at 500 mg, po reference formulation of drug administered as single dose
[9] = Tmax in healthy human (24 volunteers) at 500 mg, po reference formulation of drug administered as single dose
Homo sapiens [10] = experiment: First order inter-compartment transfer rate constant from central to peripheral compartment in healthy human (24 volunteers) at 500 mg, po test formulation of drug administered as single dose by two-compartmental open model
[11] = Clearance in healthy human (24 volunteers) at 500 mg, po reference formulation of drug administered as single dose by two-compartmental open model
[12] = Cmax in healthy human (24 volunteers) at 500 mg, po test formulation of drug administered as single dose measured after 0.5 to 72 hrs; parameters: dose 500 mg, route oral
[13] = AUC (0 to infinity) in healthy human (24 volunteers) at 500 mg, po reference formulation of drug administered as single dose measured after 0.5 to 72 hrs; parameters: dose 500 mg, time infinity, route oral
Homo sapiens [14] = experiment: Volume of distribution in healthy human (24 volunteers) at 500 mg, po reference formulation of drug administered as single dose by two-compartmental open model
[15] = Elimination rate constant from central compartment in healthy human (24 volunteers) at 500 mg, po reference formulation of drug administered as single dose by two-compartmental open model
[16] = Tmax in healthy human (24 volunteers) at 500 mg, po test formulation of drug administered as single dose
Homo sapiens [17] = experiment: Ratio of AUC (0 to infinity) in healthy human (24 volunteers) at 500 mg, po test formulation of drug administered as single dose to AUC (0 to t) in healthy human (24 volunteers) at 500 mg, po reference formulation of drug administered as single dose
[18] = Cmax in healthy human (24 volunteers) at 500 mg, po reference formulation of drug administered as single dose measured after 0.5 to 72 hrs; parameters: dose 500 mg, route oral
Homo sapiens [19] = experiment: Ratio of AUC (0 to t) in healthy human (24 volunteers) at 500 mg, po test formulation of drug administered as single dose to AUC (0 to t) in healthy human (24 volunteers) at 500 mg, po reference formulation of drug administered as single dose
[20] = AUC (0 to t) in healthy human (24 volunteers) at 500 mg, po reference formulation of drug administered as single dose measured after 0.5 to 72 hrs; parameters: time upper 72 hr, dose 500 mg, time lower 0.5 hr, route oral
Homo sapiens [21] = experiment: First order inter-compartment transfer rate constant from peripheral to central compartment in healthy human (24 volunteers) at 500 mg, po reference formulation of drug administered as single dose by two-compartmental open model
[22] = Clearance in healthy human (24 volunteers) at 500 mg, po test formulation of drug administered as single dose by two-compartmental open model
[23] = Elimination rate constant from central compartment in healthy human (24 volunteers) at 500 mg, po test formulation of drug administered as single dose by two-compartmental open model
[24] = AUC (0 to infinity) in healthy human (24 volunteers) at 400 mg, po reference formulation of drug administered as single dose measured after 0.5 to 10 hrs; parameters: dose 400 mg, route oral, time infinity
Homo sapiens [25] = experiment: First order inter-compartment transfer rate constant from peripheral to central compartment in healthy human (24 volunteers) at 400 mg, po reference formulation of drug administered as single dose by two-compartmental open model
Homo sapiens [26] = experiment: First order inter-compartment transfer rate constant from central to peripheral compartment in healthy human (24 volunteers) at 400 mg, po reference formulation of drug administered as single dose by two-compartmental open model
[27] = AUC (0 to infinity) in healthy human (24 volunteers) at 400 mg, po test formulation of drug administered as single dose measured after 0.5 to 10 hrs; parameters: dose 400 mg, time infinity, route oral
[28] = AUC (0 to t) in healthy human (24 volunteers) at 400 mg, po reference formulation of drug administered as single dose measured after 0.5 to 10 hrs; parameters: time lower 0.5 hr, dose 400 mg, time upper 10 hr, route oral
Homo sapiens [29] = experiment: Volume of distribution in healthy human (24 volunteers) at 400 mg, po reference formulation of drug administered as single dose by two-compartmental open model
[30] = Cmax in healthy human (24 volunteers) at 400 mg, po reference formulation of drug administered as single dose measured after 0.5 to 10 hrs; parameters: dose 400 mg, route oral
[31] = Elimination rate constant from central compartment in healthy human (24 volunteers) at 400 mg, po reference formulation of drug administered as single dose by two-compartmental open model
[32] = Tmax in healthy human (24 volunteers) at 400 mg, po test formulation of drug administered as single dose
[33] = Clearance in healthy human (24 volunteers) at 400 mg, po reference formulation of drug administered as single dose by two-compartmental open model
Homo sapiens [34] = experiment: First order inter-compartment transfer rate constant from central to peripheral compartment in healthy human (24 volunteers) at 400 mg, po test formulation of drug administered as single dose by two-compartmental open model
Homo sapiens [35] = experiment: First order inter-compartment transfer rate constant from peripheral to central compartment in healthy human (24 volunteers) at 400 mg, po test formulation of drug administered as single dose by two-compartmental open model
[36] = Half life in healthy human (24 volunteers) at 400 mg, po reference formulation of drug administered as single dose
Homo sapiens [37] = experiment: Ratio of Cmax in healthy human (24 volunteers) at 400 mg, po test formulation of drug administered as single dose to Cmax in healthy human (24 volunteers) at 400 mg, po reference formulation of drug administered as single dose
[38] = Half life in healthy human (24 volunteers) at 400 mg, po test formulation of drug administered as single dose
Homo sapiens [39] = experiment: Ratio of AUC (0 to t) in healthy human (24 volunteers) at 400 mg, po test formulation of drug administered as single dose to AUC (0 to t) in healthy human (24 volunteers) at 400 mg, po reference formulation of drug administered as single dose
[40] = Tmax in healthy human (24 volunteers) at 400 mg, po reference formulation of drug administered as single dose
[41] = Cmax in healthy human (24 volunteers) at 400 mg, po test formulation of drug administered as single dose measured after 0.5 to 10 hrs; parameters: dose 400 mg, route oral
[42] = Elimination rate constant from central compartment in healthy human (24 volunteers) at 400 mg, po test formulation of drug administered as single dose by two-compartmental open model
[43] = Clearance in healthy human (24 volunteers) at 400 mg, po test formulation of drug administered as single dose by two-compartmental open model
Homo sapiens [44] = experiment: Ratio of AUC (0 to infinity) in healthy human (24 volunteers) at 400 mg, po test formulation of drug administered as single dose to AUC (0 to t) in healthy human (24 volunteers) at 400 mg, po reference formulation of drug administered as single dose
[45] = AUC (0 to t) in healthy human (24 volunteers) at 400 mg, po test formulation of drug administered as single dose measured after 0.5 to 10 hrs; parameters: time 0.5-10 hr, dose 400 mg, route oral
Homo sapiens [46] = experiment: Volume of distribution in healthy human (24 volunteers) at 400 mg, po test formulation of drug administered as single dose by two-compartmental open model

K (Homo sapiens [1]): 0.405 h⁻¹ | half-life [2]: 25 h | K (Homo sapiens [3]): 0.084 h⁻¹ | AUC(0-t) [4]: 7580 ng·h/mL | Vd (Homo sapiens [5]): 32.2 L/kg | Ratio (Homo sapiens [6]): 1 | AUC(0-inf) [7]: 7990 ng·h/mL | half-life [8]: 25.2 h | Tmax [9]: 2.08 h | K (Homo sapiens [10]): 0.419 h⁻¹ | CL/F [11]: 103 mL/min/kg | Cmax [12]: 486 ng/mL | AUC(0-inf) [13]: 8440 ng·h/mL | Vd (Homo sapiens [14]): 36.8 L/kg | k el [15]: 2.72e-05 s⁻¹ | Tmax [16]: 1.96 h | Ratio AUC (Homo sapiens [17]): 0.96 | Cmax [18]: 488 ng/mL | Ratio AUC (Homo sapiens [19]): 0.95 | AUC(0-t) [20]: 8050 ng·h/mL | K (Homo sapiens [21]): 0.103 h⁻¹ | CL/F [22]: 139 mL/min/kg | k el [23]: 2.5e-05 s⁻¹
SMILES: CC[C@@H]1OC(=O)[C@H](C)[C@@H](O[C@@H]2C[C@](C)(OC)[C@H](O)[C@@H](C)O2)[C@@H](C)[C@@H](O[C@@H]2O[C@H](C)C[C@H](N(C)C)[C@H]2O)[C@](C)(O)C[C@@H](C)CN(C)[C@H](C)[C@@H](O)[C@]1(C)O

AUC(0-inf) [24]: 4790 ng·h/mL | K (Homo sapiens [25]): 1.23 h⁻¹ | K (Homo sapiens [26]): 1.34 h⁻¹ | AUC(0-inf) [27]: 4850 ng·h/mL | AUC(0-t) [28]: 4010 ng·h/mL | Vd (Homo sapiens [29]): 8.8 L/kg | Cmax [30]: 1120 ng/mL | k el [31]: 0.000123 s⁻¹ | Tmax [32]: 1.4 h | CL/F [33]: 23.3 mL/min/kg | K (Homo sapiens [34]): 2.26 h⁻¹ | K (Homo sapiens [35]): 0.415 h⁻¹ | half-life [36]: 3.61 h | Ratio (Homo sapiens [37]): 1.07 | half-life [38]: 3.64 h | Ratio AUC (Homo sapiens [39]): 1.03 | Tmax [40]: 1.38 h | Cmax [41]: 1170 ng/mL | k el [42]: 0.000229 s⁻¹ | CL/F [43]: 225 mL/min/kg | Ratio AUC (Homo sapiens [44]): 1.04 | AUC(0-t) [45]: 4020 ng·h/mL | Vd (Homo sapiens [46]): 10.4 L/kg
SMILES: CC[C@H]1OC(=O)[C@H](C)[C@@H](O[C@H]2C[C@@](C)(OC)[C@@H](O)[C@H](C)O2)[C@H](C)[C@@H](O[C@@H]2O[C@H](C)C[C@H](N(C)C)[C@H]2O)[C@](C)(O)C[C@@H](C)C(=O)[C@H](C)[C@@H](O)[C@]1(C)O [ERYTHROMYCIN]
